The nature of the series: Solubility of the peptide pamoate in water. Type of series: physicochemical. As to conditions: in H2O at 40° C. How it is done: (pyro)Glu-His-Trp-Ser-Tyr-D-Trp-Leu-Arg-Pro-Gly-NH2 were converted into the corresponding pamoate, using conventional techniques. After comminution, this salt appears as formed of microparticles of an amorphous structure with an average particle size of approximately 10 microns. Solubility: lesser than 0.025 mg/ml in H2 O at 40° C.

Consider one compound from patent US5445832A, “Process for the preparation of microspheres made of a biodegradable polymeric material” (priority 1991, dated 1995).

Each structure is given as a SMILES string. Where only a bound is given, the exact number is not on record here.

As a reminder, the solubility is the concentration that dissolves in the medium under given conditions. The low end stands for little dissolved substance, the high end for much dissolved substance. `CC(C)C[C@H](NC(=O)[C@@H](Cc1c[nH]c2ccccc12)NC(=O)[C@H](Cc1ccc(O)cc1)NC(=O)[C@H](CO)NC(=O)[C@H](Cc1c[nH]c2ccccc12)NC(=O)[C@H](Cc1c[nH]cn1)NC(=O)[C@@H]1CCC(=O)N1)C(=O)N[C@@H](CCCNC(=N)N)C(=O)N1CCC[C@H]1C(=O)NCC(N)=O` [pamoate of D-Trp6-LHRH, (pyro)Glu-His-Trp-Ser-Tyr-D-Trp-Leu-Arg-Pro-Gly-NH2] came in with a solubility below 25 µg/mL.
